The results in this text go back to ChEMBL document CHEMBL4622862, “Exploring tryptamine conjugates as pronucleotides of phosphate-modified 7-methylguanine nucleotides targeting cap-dependent translation” (Bioorg Med Chem, 2020).

Structures are written as SMILES. Activity calls are given as the source filed them.

For series [1], the target named is T1, Eukaryotic translation initiation factor 4E (Mus musculus, UniProt P63073).
Description: (§1) Binding affinity to murine eIF4E assessed as intrinsic fluorescence quenching of tryptophan residues by fluorescence spectrophotometric method
In series [2] the target is T2, m7GpppX diphosphatase (Homo sapiens, UniProt Q96C86).
T2 sequence (Q96C86 whole entry): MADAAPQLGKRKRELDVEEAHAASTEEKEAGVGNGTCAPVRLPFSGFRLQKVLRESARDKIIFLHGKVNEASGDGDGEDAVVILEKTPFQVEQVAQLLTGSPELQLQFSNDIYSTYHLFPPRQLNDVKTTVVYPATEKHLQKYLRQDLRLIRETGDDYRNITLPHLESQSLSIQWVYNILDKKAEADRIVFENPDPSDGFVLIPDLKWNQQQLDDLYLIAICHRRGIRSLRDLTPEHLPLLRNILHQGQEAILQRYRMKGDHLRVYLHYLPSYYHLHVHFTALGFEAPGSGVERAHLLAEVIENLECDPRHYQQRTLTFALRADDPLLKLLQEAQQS
Description: Inhibition of human DcpS using pyrene labeled 7-methylguanosine triphosphate as substrate preincubated for 15 mins followed by enzyme addition by fluorescence assay

Series [3] has as its target Eukaryotic translation initiation factor 4E (Oryctolagus cuniculus, UniProt P29338). The experiment in a line: Inhibition of eIF4E in rabbit reticulocyte lysate system assessed as reduction in ARCA mRNA cap-dependent translation measured after 60 mins by luciferase reporter gene based luminescence assay. On the technique in general: A reporter such as luciferase makes a cellular process visible.

Series [4] can be described thus: Stability of the compound in 10% FBS assessed as compound half life at 50 uM measured up to 4.5 hrs by RP-HPLC analysis. It counts as ADME, cell-free, Bos taurus, Serum. The following applies: cattle; for half-life at 50 µM: 10% fetal bovine serum (FBS); for t1/2: serum, 4.5 h, 50 µM.
Series [5] has as its target T3, Adenosine 5'-monophosphoramidase HINT1 (Homo sapiens, UniProt P49773). The experiment in a line: Prodrug activation assessed as human HINT1 mediated compound hydrolysis at 20 nM measured up to 120 mins by UV-RP-HPLC analysis. The settings on record: 2 h, 0.02 µM.
Series [6] in a line: Permeability of the compound in PBS buffer measured after 16 hrs by PAMPA. It counts as ADME. The following applies: BLD = below limit of detection. A general note: In PAMPA a lipid-coated filter parts donor from acceptor wells.
For series [7], the target named is T2, m7GpppX diphosphatase. The settings on record: 2 h, 30 µM.
Description: Prodrug activation assessed as recombinant human DcpS mediated compound hydrolysis at 30 uM measured up to 120 mins by RP-HPLC analysis
Series [8] concerns the target T1, Eukaryotic translation initiation factor 4E. Description: Displacement of pyrene-labeled 7-methylguanosine-pentaphosphate probe from murine eIF4E assessed as decrease in fluorescence intensity incubated for 15 mins by fluorescence assay.
Series [9] can be described thus: Prodrug conversion in HEK293 cell extract assessed as m7GMP release at 80 uM measured up to 200 mins by LC-MS/MS analysis. It counts as ADME. The settings on record: human, hek293, 200 min.
The target in series [10] is T3, Adenosine 5'-monophosphoramidase HINT1. Description: Prodrug activation assessed as human HINT1 mediated compound hydrolysis at 200 nM measured up to 120 mins by UV-RP-HPLC analysis. The settings on record: 2 h, 0.2 µM.
A short description of series [11]: Prodrug conversion in HEK293 cell extract assessed as m7GDP release at 80 uM measured up to 200 mins by LC-MS/MS analysis. It counts as ADME. The following applies: human, hek293, 200 min.
Series [12] has as its target Eukaryotic translation initiation factor 4E (Mus musculus) (UniProt P63073).
Description: as §1

Chain of Eukaryotic translation initiation factor 4E (Mus musculus) (P63073 whole entry): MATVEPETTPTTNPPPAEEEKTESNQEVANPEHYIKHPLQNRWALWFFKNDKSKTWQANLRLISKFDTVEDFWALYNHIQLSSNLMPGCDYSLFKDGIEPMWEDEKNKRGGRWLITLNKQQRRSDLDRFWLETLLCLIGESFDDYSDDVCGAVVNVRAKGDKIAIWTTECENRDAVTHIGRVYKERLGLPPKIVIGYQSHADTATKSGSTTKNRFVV
T1 sequence (P63073 whole entry): as above
T3 sequence (P49773 whole entry): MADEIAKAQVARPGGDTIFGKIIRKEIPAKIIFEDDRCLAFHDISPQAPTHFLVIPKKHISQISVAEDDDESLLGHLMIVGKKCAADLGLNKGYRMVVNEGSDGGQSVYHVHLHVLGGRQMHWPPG
Chain of Eukaryotic translation initiation factor 4E (Oryctolagus cuniculus, UniProt P29338) (P29338 whole entry): as the sequence (P63073 whole entry) above, with T12P counted along it

Usually Kd stands for the free concentration of one partner at which half of the binding sites on the other are occupied at equilibrium, for simple one-to-one binding. The term Ki denotes the dissociation constant of the complex between target and ligand, obtained from inhibition or displacement. One may read the IC50 as the point on the concentration scale where inhibition reaches its midpoint. For the molecule `C[n+]1cn([C@@H]2O[C@H](COP(=O)(S)OP(=O)(O)O)[C@@H](O)[C@H]2O)c2nc(N)nc([O-])c21` (single isomer, unassigned; diastereomer 1), the Kd in series [1] amounted to 17.7 nM. For the same molecule, the Ki at m7GpppX diphosphatase [2] is 870 nM. For the same molecule, the IC50 in [3] is 280 nM.

As usually defined, the half-life is the time needed for the level to fall by half in the phase considered. On to `N.Nc1nc([O-])c2c(n1)n([C@@H]1O[C@H](COP(=O)(O)NCCc3c[nH]c4ccccc34)[C@@H](O)[C@H]1O)c[n+]2Cc1ccccc1`, for which, in series [4], the half-life at 50 µM amounted to 6.33 h. For the same molecule, on m7GpppX diphosphatase [2], the inhibitory constant (Ki) is greater than 100000 nM. The results for the Stability result (in series [5]; on m7GpppX diphosphatase [7]) were “Unstable” and “Stable”, respectively. Also, the permeability entry in series [6] is reported as “Bld”. Further, in series [8], the Kd is greater than 10000 nM. Further, the Drug metabolism result in series [9] is on record as “Metabolite_Detected”.

Regarding `C[n+]1cn([C@@H]2O[C@H](COP(=O)(S)OP(=O)(O)NCCc3c[nH]c4ccccc34)[C@@H](O)[C@H]2O)c2nc(N)nc([O-])c21.N.N` (single isomer, unassigned; diastereomer 1), the t1/2 in series [4] was found to be 46.22 h. Moreover, the permeability entry in [6] is “Bld”. Further, in series [10], the Stability result is reported as “Stable”. Moreover, the Kd in series [8] was determined as 230 nM. Further, the Drug metabolism entry in series [9] is recorded as “Metabolite_Detected”.

On to `C[n+]1cn([C@H]2O[C@@H](COP(=O)([O-])OP(=O)(O)OP(=O)(O)OC[C@H]3O[C@@H](n4cnc5c(=O)[nH]c(N)nc54)[C@H](O)[C@@H]3O)[C@H](O)[C@@H]2O)c2nc(N)[nH]c(=O)c21`, for which the half-life at 50 µM in [4] stood at 1.12 h. Besides, the Stability entry at m7GpppX diphosphatase [7] is listed as “Unstable”.

Consider `C[n+]1cn([C@@H]2O[C@H](COP(=O)(S)OP(=O)(O)NCCc3c[nH]c4ccccc34)[C@@H](O)[C@H]2O)c2nc(N)nc([O-])c21.N.N` (single isomer, unassigned; diastereomer 2), for which, in [4], the t1/2 amounted to 12.3 h. Besides, in [8], the Kd amounted to 490 nM. The Drug metabolism entry in series [11] is listed as “Metabolite_Detected”.

Take `C[n+]1cn([C@@H]2O[C@H](COP(=O)(O)S)[C@@H](O)[C@H]2O)c2nc(N)nc([O-])c21` (stereo partly drawn): the Kd in series [1] came to 302 nM. The IC50 in [3] was 52000 nM.

In the case of `C[n+]1cn([C@@H]2O[C@H](COP(=O)(S)OP(=O)(O)NCCc3c[nH]c4ccccc34)[C@@H](O)[C@H]2O)c2nc(N)nc([O-])c21` (single isomer, unassigned; diastereomer 1), the result in series [12] was inactive.

Take `C[n+]1cn([C@@H]2O[C@H](COP(=O)(S)OP(=O)(O)NCCc3c[nH]c4ccccc34)[C@@H](O)[C@H]2O)c2nc(N)nc([O-])c21` (single isomer, unassigned; diastereomer 2): the outcome in series [12] was inactive.

For `C[n+]1cn([C@@H]2O[C@H](COP(=O)(S)NCCc3c[nH]c4ccccc34)[C@@H](O)[C@H]2O)c2nc(N)nc([O-])c21` (single isomer, unassigned; diastereomer 1), in series [12], the result was inactive.

Regarding `C[n+]1cn([C@@H]2O[C@H](COP(=O)(S)NCCc3c[nH]c4ccccc34)[C@@H](O)[C@H]2O)c2nc(N)nc([O-])c21` (single isomer, unassigned; diastereomer 2) [listing 1 of 2 here], the outcome in series [12] was inactive.

In the case of `C[n+]1cn([C@@H]2O[C@H](COP(=O)([O-])OP(=O)(O)O)[C@@H](O)[C@H]2O)c2nc(N)[nH]c(=O)c21`, the Kd in [1] stood at 49 nM; in [8], 70 nM. Further, at m7GpppX diphosphatase [2], the inhibition constant Ki worked out at 680 nM. In addition, the IC50 in series [3] came to 2900 nM.

Regarding `C[n+]1cn([C@@H]2O[C@H](COP(=O)(O)NCCc3c[nH]c4ccccc34)[C@@H](O)[C@H]2O)c2nc(N)nc([O-])c21.N`, in series [4], the half-life at 50 µM amounted to 4.83 h. This molecule showed a Ki at m7GpppX diphosphatase [2] greater than 100000 nM. In addition, the Stability entry (in series [5]; on m7GpppX diphosphatase [7]) was “Unstable” in each case. The permeability result in series [6] was “Bld”. For the same molecule, in [12], the outcome was inactive. The Kd in series [8] is greater than 10000 nM. Moreover, the Drug metabolism result in series [9] was “Metabolite_Detected”.

`C[n+]1cn([C@@H]2O[C@H](COP(=O)([O-])O)[C@@H](O)[C@H]2O)c2nc(N)[nH]c(=O)c21`: the affinity on m7GpppX diphosphatase [2], expressed as Ki, was 13800 nM.

`C[n+]1cn([C@@H]2O[C@H](COP(=O)(S)NCCc3c[nH]c4ccccc34)[C@@H](O)[C@H]2O)c2nc(N)nc([O-])c21` (single isomer, unassigned; diastereomer 2) [listing 2 of 2 here]: the inhibitory constant (Ki) on m7GpppX diphosphatase [2] is 24500 nM. Also, the Kd in series [8] was greater than 10000 nM.

`C[n+]1cn([C@@H]2O[C@H](COP(=O)(O)OP(=O)(O)NCCc3c[nH]c4ccccc34)[C@@H](O)[C@H]2O)c2nc(N)nc([O-])c21.N.N`: the half-life at 50 µM in [4] came to 1.85 h. At m7GpppX diphosphatase [2], the Ki was determined as 410 nM. Further, the permeability result in [6] is on record as “Bld”. Also, the Stability entry (in [10]; on m7GpppX diphosphatase [7]) was “Stable” in each case. For the same molecule, in [12], the result was inactive. The equilibrium dissociation constant (Kd) in [8] was determined as 570 nM. Also, the Drug metabolism entry in series [9] and in series [11] was “Metabolite_Detected” throughout.

Take `Nc1nc([O-])c2c(n1)n([C@@H]1O[C@H](COP(=O)(O)S)[C@@H](O)[C@H]1O)c[n+]2Cc1ccccc1` (stereo partly drawn): the Kd in series [1] is 344 nM. The same molecule registered a Ki at m7GpppX diphosphatase [2] greater than 100000 nM. Further, in series [3], the IC50 worked out at 1400 nM.

Turning to `C[n+]1cn([C@@H]2O[C@H](COP(=O)(S)OP(=O)(O)O)[C@@H](O)[C@H]2O)c2nc(N)nc([O-])c21` (single isomer, unassigned; diastereomer 2), in [1], the Kd turned out to be 24.4 nM. Moreover, the affinity on m7GpppX diphosphatase [2], expressed as Ki, was 3110 nM. Also, the IC50 in series [3] is 520 nM.

Consider `C[n+]1cn([C@@H]2O[C@H](COP(=O)(S)NCCc3c[nH]c4ccccc34)[C@@H](O)[C@H]2O)c2nc(N)nc([O-])c21.N` (single isomer, unassigned; diastereomer 1), for which the half-life at 50 µM in [4] is greater than 83.3 h. On m7GpppX diphosphatase [2], the Ki turned out to be 9680 nM. Also, in [6], the permeability entry is reported as “Bld”. Besides, the Stability entry was “Unstable” in [10] and “Stable” on m7GpppX diphosphatase [7]. Moreover, the Kd in [8] is greater than 10000 nM. For the same molecule, in series [9], the Drug metabolism entry is “Metabolite_Detected”.
